Patent publication US9309263B2, “Fused multi-cyclic sulfone compounds as inhibitors of beta-secretase and methods of use thereof” (AMGEN INC., priority 2013, dated 2016)
Read-outs that look alike come from different tables or passages of the source.

Assays:
[1] = tested on: Aβ 40 in conditioned medium of cells stably expressing Amyloid Precursor Protein (APP); assay: In vitro BACE cell-based assay (Aβ 40 sandwich ELISA)
Summary of the method: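 APP-expressing cells, 24 h pre-culture in DMEM/10% FBS, treated 24 h with 10-point compound dilutions from 100 or 10 μM top, 0.1% DMSO final. Secreted Aβ40 quantified by sandwich ELISA (pAb40 capture, biotinylated 6E10 detection, europium TRF); IC50 from percent inhibition versus concentration.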

[2] = molecular target: Beta Secretase enzyme (BACE) (Homo sapiens, UniProt P56817); assay: In vitro enzymatic BACE FRET assay; assay type: biochemical; conditions: read-out: BACE1 FRET assay IC50
Summary of the method: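 Enzyme (0.2 nM) pre-incubated 1 h with serially diluted inhibitors in 0.05 M acetate pH 4.2, 10% DMSO, 100 uM genapol. Reaction started with 50 nM fluorophore/quencher peptide FRET substrate, run 1 h, stopped with Tris to neutral pH. Fluorescence read at excitation 488 nm, […].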

Cathepsin D (Cat D) = Cathepsin D (Cat D) (Homo sapiens, UniProt P07339); assay: In vitro enzymatic Cathepsin D (Cat D) FRET assay; assay type: biochemical
Summary of the method: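 Recombinant CHO-expressed enzyme (9 nM) pre-incubated 1 h with serially diluted inhibitor in 0.05 M citrate pH 3.5, 10% DMSO final, 5 mM CHAPS. Reaction started with 20 nM FRET peptide substrate, run 1 h, stopped with Tris to neutral pH; fluorescence read at ex 500/em 580 nm.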

[3] = Homo sapiens, HEK293, average IC50, HEK cell assay, Aβ 40 readout
[4] = average IC50, in vitro enzymatic BACE FRET assay
[5] = Cathepsin D FRET assay, read-out: CatD IC50
[6] = Homo sapiens, HEK293, HEK cell, average IC50
[7] = text summary referring to data in Table 2

Cathepsin D (Cat D), sequence (P07339 65-412, species assumed): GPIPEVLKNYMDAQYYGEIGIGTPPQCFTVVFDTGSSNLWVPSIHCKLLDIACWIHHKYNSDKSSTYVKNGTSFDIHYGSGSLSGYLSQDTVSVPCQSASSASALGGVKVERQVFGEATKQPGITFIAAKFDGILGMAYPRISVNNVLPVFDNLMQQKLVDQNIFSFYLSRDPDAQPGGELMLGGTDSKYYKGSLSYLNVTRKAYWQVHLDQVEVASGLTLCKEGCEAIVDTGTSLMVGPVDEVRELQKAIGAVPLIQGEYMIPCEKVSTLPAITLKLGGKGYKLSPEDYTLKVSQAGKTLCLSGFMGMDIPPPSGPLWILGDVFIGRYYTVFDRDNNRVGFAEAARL
Beta Secretase enzyme (BACE), sequence (P56817 46-501): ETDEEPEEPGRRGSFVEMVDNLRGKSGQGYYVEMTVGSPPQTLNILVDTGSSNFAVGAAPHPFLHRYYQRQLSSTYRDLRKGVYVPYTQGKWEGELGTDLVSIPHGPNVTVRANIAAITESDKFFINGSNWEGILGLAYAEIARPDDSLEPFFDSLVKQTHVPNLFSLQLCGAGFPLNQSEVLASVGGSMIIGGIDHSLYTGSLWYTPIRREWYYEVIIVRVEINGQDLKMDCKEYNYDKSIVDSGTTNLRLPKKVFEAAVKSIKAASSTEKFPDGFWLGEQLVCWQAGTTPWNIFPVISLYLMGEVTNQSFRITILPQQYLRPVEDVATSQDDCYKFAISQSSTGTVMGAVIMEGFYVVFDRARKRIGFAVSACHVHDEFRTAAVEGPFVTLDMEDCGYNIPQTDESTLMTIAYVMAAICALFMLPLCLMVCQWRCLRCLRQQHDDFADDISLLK

Row | Structure (SMILES) | IC50 [1, 3] [µM] | IC50 [2, 4] [µM] | IC50 (Cathepsin D (Cat D); [5]) [µM] | IC50 [1, 6] [µM] | IC50 ([2]; average IC50) [µM] | IC50 (Cathepsin D (Cat D); read-out: CatD IC50) [µM] | IC50 (Cathepsin D (Cat D); [7]) [µM] | IC50 ([1]; HEK cell, average IC50) [µM] | IC50 ([1]; Homo sapiens, HEK293, HEK cells, average IC50) [µM]
1 | C[C@H]1C[C@H]2[C@](CF)(N=C(N)C(C)(C)S2(=O)=O)c2cc(Nc3nccc4cc(C#N)cnc34)ccc2O1 [Example 109, 8-(((4aS,6S,11bS)-2-amino-11b-(fluoromethyl)-3,3,6-trimethyl-4,4-dioxido-4a,5,6,11b-tetrahydro-3H-[1]benzoxepino[4,5-b][1,4]thiazin-10-yl)amino)-1,7-naphthyridine-3-carbonitrile] | 0.008 | 0.003 | > 400 | – | – | – | – | – | –
2 | CC#C[C@H](C)Oc1cnc(C(=O)Nc2ccc3c(c2)[C@@]2(C)N=C(N)C(C)(C)S(=O)(=O)[C@@H]2CCO3)cn1 [Example 15, N-((4aR,11bR)-2-amino-3,3,11b-trimethyl-4,4-dioxido-4a,5,6,11b-tetrahydro-3H-[1]benzoxepino[4,5-b][1,4]thiazin-10-yl)-5-(((1S)-1-methyl-2-butyn-1-yl)oxy)-2-pyrazinecarboxamide] | – | – | – | 0.0005 | 0.003 | 1970 | > 1200 | – | –
3 | C[C@H]1C[C@@H]2[C@](C)(N=C(N)C(C)(C)S2(=O)=O)c2cc(NC(=O)c3cnc(OCc4cnn(C)c4)cn3)ccc2O1 [Example 81, N-((4aR,6S,11bR)-2-amino-3,3,6,11b-tetramethyl-4,4-dioxido-4a,5,6,11b-tetrahydro-3H-[1]benzoxepino[4,5-b][1,4]thiazin-10-yl)-5-((1-methyl-1H-pyrazol-4-yl)methoxy)-2-pyrazinecarboxamide] | 0.072 | 0.016 | 1310 | – | – | – | > 1200 | – | –
4 | COc1cnc(C(=O)Nc2ccc3c(c2)[C@@]2(C)N=C(N)C(C)(C)S(=O)(=O)[C@@H]2CC(C)(C)O3)c(C)n1 [Example 101, N-((4aR,11bR)-2-amino-3,3,6,6,11b-pentamethyl-4,4-dioxido-4a,5,6,11b-tetrahydro-3H-[1]benzoxepino[4,5-b][1,4]thiazin-10-yl)-5-methoxy-3-methyl-2-pyrazinecarboxamide] | 0.019 | 0.029 | 835 | – | – | – | – | – | –
5 | CC1(C)C(N)=N[C@]2(C)c3cc(Nc4nccc5cc(Cl)cnc45)ccc3CCC[C@H]2S1(=O)=O [Example 46, (4aR,11bR)-N^~10^~-(3-chloro-1,7-naphthyridin-8-yl)-3,3,11b-trimethyl-3,4a,5,6,7,11b-hexahydrobenzo[3,4]cyclohepta[1,2-b][1,4]thiazine-2,10-diamine 4,4-dioxide] | – | – | – | 0.102 | 0.01 | 85.9 | – | – | –
6 | CC#CCOc1cnc(C(=O)Nc2ccc3c(c2)[C@@]2(C)N=C(N)C(C)(C)S(=O)(=O)[C@@H]2CC(C)(C)O3)cn1 [Example 98, N-((4aR,11bR)-2-amino-3,3,6,6,11b-pentamethyl-4,4-dioxido-4a,5,6,11b-tetrahydro-3H-[1]benzoxepino[4,5-b][1,4]thiazin-10-yl)-5-(2-butyn-1-yloxy)-2-pyrazinecarboxamide] | 0.0005 | 0.002 | 318 | – | – | – | – | – | –
7 | CC1(C)C(N)=N[C@]2(C)c3cc(NC(=O)c4ccc(C5CC5)cn4)ccc3OCC[C@H]2S1(=O)=O [Example 179, N-((4aR,11bR)-2-amino-3,3,11b-trimethyl-4,4-dioxido-4a,5,6,11b-tetrahydro-3H-[1]benzoxepino[4,5-b][1,4]thiazin-10-yl)-5-cyclopropyl-2-pyridinecarboxamide] | – | – | – | – | 0.066 | 705 | – | – | 0.035
8 | COc1cccnc1Nc1ccc2c(c1)[C@@]1(C)N=C(N)C(C)(C)S(=O)(=O)[C@@H]1CCO2 [Example 13, (4aR,11bR)-N^~10^~-(3-methoxy-2-pyridinyl)-3,3,11b-trimethyl-4a,5,6,11b-tetrahydro-3H-[1]benzoxepino[4,5-b][1,4]thiazine-2,10-diamine 4,4-dioxide] | – | – | – | 0.073 | 0.094 | 369 | – | – | –
9 | C[C@H]1C[C@@H]2[C@](C)(N=C(N)C(C)(C)S2(=O)=O)c2cc(Nc3nccc4nc(OCc5ccn(C)n5)cnc34)ccc2O1 [Example 146, (4aR,6S,11bR)-3,3,6,11b-tetramethyl-N^~10^~-(2-((1-methyl-1H-pyrazol-3-yl)methoxy)pyrido[3,4-b]pyrazin-5-yl)-4a,5,6,11b-tetrahydro-3H-[1]benzoxepino[4,5-b][1,4]thiazine-2,10-diamine 4,4-dioxide] | 0.004 | 0.005 | 804 | – | – | – | – | – | –

The next lines start with the values.

Row | IC50 [1, 3] [µM] | IC50 [2, 4] [µM] | IC50 (Cathepsin D (Cat D); [5]) [µM] | IC50 [1, 6] [µM] | IC50 ([2]; average IC50) [µM] | IC50 (Cathepsin D (Cat D); read-out: CatD IC50) [µM] | IC50 (Cathepsin D (Cat D); [7]) [µM] | IC50 ([1]; HEK cell, average IC50) [µM] | IC50 ([1]; Homo sapiens, HEK293, HEK cells, average IC50) [µM] | Structure (SMILES)
10 | – | – | – | – | 0.059 | > 400 | – | 0.184 | – | COc1cnc(C(=O)Nc2cnc3c(c2)[C@@]2(C)N=C(N)C4(CCC4)S(=O)(=O)[C@@H]2CCO3)c(C)c1 [Example 64, N-((4a′R,11b′R)-2′-amino-1113′-methyl-4′,4′-dioxido-4a′,5′,6′,11b′-tetrahydrospiro[cyclobutane-1,3′-pyrido[3′,2′:6,7]oxepino[4,5-b][1,4]thiazin]-10′-yl)-5-methoxy-3-methyl-2-pyridinecarboxamide]
11 | – | – | – | 0.164 | 0.036 | 868 | > 800 | – | – | C[C@]12N=C(N)C3(CCC3)S(=O)(=O)[C@@H]1CCOc1ncc(NC(=O)c3ccc(C#N)cn3)cc12 [Example 63, N-((4a′R,11b′R)-2′-amino-1113′-methyl-4′,4′-dioxido-4a′,5′,6′,11b′-tetrahydrospiro[cyclobutane-1,3′-pyrido[3′,2′:6,7]oxepino[4,5-b][1,4]thiazin]-10′-yl)-5-cyano-2-pyridinecarboxamide]
12 | – | – | – | 0.006 | 0.002 | > 100 | – | – | – | Cc1cc(Cl)cnc1C(=O)Nc1ccc2c(c1)[C@@]1(C)N=C(N)C(C)(C)S(=O)(=O)[C@@H]1CCO2 [Example 6a, N-((4aR,11bR)-2-amino-3,3,11b-trimethyl-4,4-dioxido-4a,5,6,11b-tetrahydro-3H-benzo[6,7]oxepino[4,5-b][1,4]thiazin-10-yl)-5-chloro-3-methylpicolinamide]
13 | – | – | – | 0.016 | 0.015 | 226 | – | – | – | CCc1cc(Cl)cnc1C(=O)Nc1ccc2c(c1)[C@@]1(C)N=C(N)C(C)(C)S(=O)(=O)[C@@H]1CCO2 [Example 31, N-((4aR,11bR)-2-amino-3,3,11b-trimethyl-4,4-dioxido-4a,5,6,11b-tetrahydro-3H-benzo[6,7]oxepino[4,5-b][1,4]thiazin-10-yl)-5-chloro-3-ethylpicolinamide]
14 | – | – | – | 0.019 | 0.003 | 263 | – | – | – | CC1(C)C(N)=N[C@]2(C)c3cc(Nc4nccc5cc(Cl)cnc45)cnc3OCC[C@H]2S1(=O)=O [Example 19, (4aR,11bR)-N^~10^~-(3-chloro-1,7-naphthyridin-8-yl)-3,3,11b-trimethyl-4a,5,6,11b-tetrahydro-3H-pyrido[3′,2′:6,7]oxepino[4,5-b][1,4]thiazine-2,10-diamine4,4-dioxide]
15 | – | – | – | 0.001 | 0.003 | 1040 | > 1200 | – | – | Cc1cc(C#N)cnc1C(=O)Nc1ccc2c(c1)[C@@]1(C)N=C(N)C(C)(C)S(=O)(=O)[C@@H]1CCC2 [Example 12, N-((4aR,11bR)-2-amino-3,3,11b-trimethyl-4,4-dioxido-3,4a,5,6,7,11b-hexahydrobenzo[3,4]cyclohepta[1,2-b][1,4]thiazin-10-yl)-5-cyano-3-methyl-2-pyridinecarboxamide]
